Source: patent US20020035061A1, “COMPOSITIONS AND METHODS FOR TREATING INFECTIONS USING CATIONIC PEPTIDES ALONE OR IN COMBINATION WITH ANTIBIOTICS” (priority 1996, published 2002)
Read-outs that look alike come from different tables or passages of the source.

What was measured:
A. calcoaceticus = assay type: cell-based
E. cloacae = assay type: cell-based
E. coli = assay type: cell-based
E. faecalis = assay type: cell-based; conditions: for MIC, Peptide: unmodified parent peptide
E. faecium = assay type: cell-based; conditions: E. faecium strain EFM003
H. influenzae = assay: Agarose dilution assay (MIC); assay type: cell-based; conditions: H. influenzae strain HIN002
K. pneumoniae = assay type: cell-based
P. aeruginosa = assay type: cell-based
S. aureus = assay type: cell-based; conditions: for MIC, Peptide: unmodified parent peptide
S. epidermidis = assay type: cell-based; conditions: S. epidermidis strain SE003
S. maltophilia = assay type: cell-based
S. marcescens = assay type: cell-based
S. pneumoniae = assay: Agarose dilution assay (MIC); assay type: cell-based
S. pyogenes = assay: Agarose dilution assay (MIC); assay type: cell-based; conditions: S. pyogenes strain SPY006
bacterial isolates = assay: microbe, parasite or virus in culture; assay type: cell-based
[1] = system: inherently resistant microorganisms; assay: microbe, parasite or virus in culture; assay type: cell-based; conditions: S. aureus
[2] = system: microorganisms with acquired resistance; assay: microbe, parasite or virus in culture; assay type: cell-based
[3] = system: MSSA (Smith, ATCC # 19640); assay: In vivo efficacy, MSSA infection; set-up: species or system S. aureus; conditions: formulation D, 60 min post-infection, end of eight day observation
[4] = A. baumannii ABI001, Tobramycin section
[5] = P. aeruginosa 23, Piperacillin section
[6] = P. aeruginosa PA032, Tobramycin section
[7] = S. aureus SA014 (also SA014 MRSA)
[8] = S. maltophilia SMA029, Tobramycin section
[9] = S. maltophilia SMA030, Tobramycin section
[10] = peptide + Piperacillin, P. aeruginosa 23
[11] = peptide + Tobramycin, A. baumannii ABI001
[12] = peptide + Tobramycin, P. aeruginosa PA032
[13] = peptide + Tobramycin, S. maltophilia SMA029
[14] = peptide + Tobramycin, S. maltophilia SMA030

ILKKWVWWPWRRK [MBI 11F3CN]
8 µg/mL: MIC (E. coli; E. coli strain ECO002) | MIC (E. faecalis; E. faecalis strain EFS002) | MIC, Peptide (S. aureus; S. aureus SA011) | MIC, Peptide (S. aureus; S. aureus SA014) | MIC (S. pyogenes) | Peptide MIC + Tobramycin (bacterial isolates; A. baumannii ABI002) | Peptide MIC Alone (bacterial isolates; S. aureus SB3MRSA, Piperacillin section)
0.53: FIC (bacterial isolates; [11]) | FIC [2, 11]
10%: % Survival ([3]; 18 mg/kg ip)
2 µg/mL: MIC, Peptide (A. calcoaceticus; A. calcoaceticus AC002, unmodified parent peptide) | MIC, Peptide (S. aureus; S. aureus SA010) | MIC, Peptide (S. aureus; S. aureus SA025) | MIC (S. aureus; S. aureus strain SA005) | MIC (S. epidermidis) | Tobramycin MIC + Peptide (bacterial isolates; A. baumannii ABI002) | Peptide MIC + Tobramycin (bacterial isolates; [7]) | Tobramycin MIC + Peptide (bacterial isolates; [7]) | Peptide MIC + Piperacillin (bacterial isolates; S. aureus SB3MRSA) | Peptide MIC + Tobramycin (bacterial isolates; S. haemolyticus SHA005) | Peptide MIC + Tobramycin [1]
0.56: FIC (bacterial isolates; peptide + Tobramycin, S. haemolyticus SHA005)
0.75: FIC ([2]; peptide + Piperacillin, S. maltophilia 2)
0.51: FIC (bacterial isolates; [10]) | FIC (bacterial isolates; peptide + Tobramycin, S. aureus SA014 (also SA014 MRSA)) | FIC ([1]; peptide + Tobramycin) | FIC [2, 10]
128 µg/mL: MIC, Peptide (P. aeruginosa; P. aeruginosa PA004, unmodified parent peptide) | MIC (P. aeruginosa; P. aeruginosa strain PA041) | Peptide MIC Alone (bacterial isolates; P. aeruginosa 41, Piperacillin section) | Peptide MIC Alone (bacterial isolates; [8]) | Peptide MIC Alone (bacterial isolates; [9]) | Peptide MIC Alone ([2]; P. aeruginosa 7, Piperacillin section) | Peptide MIC Alone [2, 8] | Peptide MIC Alone [2, 9]
4 µg/mL: MIC (A. calcoaceticus; A. calcoaceticus strain AC002) | MIC (E. faecium) | Piperacillin MIC + Peptide (bacterial isolates; P. aeruginosa 41) | Tobramycin MIC + Peptide (bacterial isolates; P. aeruginosa PA032) | Peptide MIC Alone (bacterial isolates; S. aureus 19 MRSA, Piperacillin section) | Peptide MIC Alone (bacterial isolates; S. aureus SA014 (also SA014 MRSA), Tobramycin section) | Peptide MIC Alone (bacterial isolates; S. haemolyticus SHA005, Tobramycin section) | Peptide MIC + Tobramycin (bacterial isolates; S. maltophilia SMA029) | Peptide MIC Alone ([1]; Tobramycin section) | Peptide MIC + Piperacillin ([2]; A. calcoaceticus 3) | Tobramycin MIC + Peptide ([2]; P. aeruginosa PA032)
1 µg/mL: MIC, Peptide (S. aureus; S. aureus SA093) | Tobramycin MIC + Peptide (bacterial isolates; S. maltophilia SMA030) | Tobramycin MIC + Peptide ([2]; S. maltophilia SMA029) | Tobramycin MIC + Peptide ([2]; S. maltophilia SMA030)
32 µg/mL: MIC, Peptide (E. faecalis; E. faecalis EFS001) | Peptide MIC Alone (bacterial isolates; [4]) | Piperacillin MIC + Peptide (bacterial isolates; S. aureus 19 MRSA) | Tobramycin MIC + Peptide (bacterial isolates; S. maltophilia SMA029) | Peptide MIC + Tobramycin (bacterial isolates; S. maltophilia SMA030) | Peptide MIC Alone [2, 4] | Peptide MIC Alone ([2]; A. calcoaceticus 3, Piperacillin section) | Peptide MIC Alone ([2]; S. maltophilia 2, Piperacillin section) | Peptide MIC + Tobramycin ([2]; S. maltophilia SMA029) | Peptide MIC + Tobramycin ([2]; S. maltophilia SMA030)
90%: % Survival ([3]; 24 mg/kg ip)
0.63: FIC (bacterial isolates; peptide + Piperacillin, P. aeruginosa 41) | FIC ([2]; peptide + Piperacillin, A. calcoaceticus 3)
0.26: FIC (bacterial isolates; [14]) | FIC [2, 13] | FIC [2, 14]
1.00: FIC (bacterial isolates; peptide + Tobramycin, A. baumannii ABI002) | FIC ([2]; peptide + Piperacillin, P. aeruginosa 7)
64 µg/mL: MIC, Peptide (K. pneumoniae; K. pneumoniae KP001, unmodified parent peptide) | MIC (K. pneumoniae; K. pneumoniae strain KP002) | MIC, Peptide (S. maltophilia; S. maltophilia SMA002, unmodified parent peptide) | MIC (S. maltophilia; S. maltophilia strain SMA002) | Piperacillin MIC + Peptide (bacterial isolates; P. aeruginosa 23) | Peptide MIC Alone (bacterial isolates; [5]) | Peptide MIC + Piperacillin (bacterial isolates; P. aeruginosa 41) | Peptide MIC + Tobramycin (bacterial isolates; P. aeruginosa PA032) | Piperacillin MIC + Peptide (bacterial isolates; S. aureus SB3MRSA) | Peptide MIC + Piperacillin ([2]; P. aeruginosa 7) | Piperacillin MIC + Peptide ([2]; P. aeruginosa 7) | Piperacillin MIC + Peptide ([2]; P. aeruginosa 23) | Peptide MIC Alone [2, 5] | Peptide MIC + Tobramycin ([2]; P. aeruginosa PA032)
0%: % Survival ([3]; 12 mg/kg ip)
0.28: FIC (bacterial isolates; [13])
0.50: FIC (bacterial isolates; peptide + Piperacillin, S. aureus SB3MRSA) | FIC (bacterial isolates; [12]) | FIC [2, 12]
16 µg/mL: MIC, Peptide (E. coli; E. coli ECO005, unmodified parent peptide) | MIC, Peptide (E. faecalis; E. faecalis EFS004) | MIC, Peptide (E. faecalis; E. faecalis EFS008) | MIC, Peptide (S. aureus; S. aureus SA018) | Peptide MIC + Tobramycin (bacterial isolates; A. baumannii ABI001) | Peptide MIC Alone (bacterial isolates; A. baumannii ABI002, Tobramycin section) | Peptide MIC + Tobramycin ([2]; A. baumannii ABI001) | Piperacillin MIC + Peptide ([2]; A. calcoaceticus 3) | Peptide MIC + Piperacillin ([2]; S. maltophilia 2) | Piperacillin MIC + Peptide ([2]; S. maltophilia 2)
>128 µg/mL: MIC, Peptide (E. cloacae; E. cloacae ECL007, unmodified parent peptide) | MIC (E. cloacae; E. cloacae strain ECL007) | MIC (H. influenzae) | MIC, Peptide (S. marcescens; S. marcescens SMS003, unmodified parent peptide) | MIC (S. marcescens; S. marcescens strain SMS004) | MIC (S. pneumoniae; S. pneumoniae strain SBSPN3) | MIC (S. pneumoniae; S. pneumoniae strain SPN044) | Peptide MIC Alone (bacterial isolates; [6]) | Peptide MIC Alone [2, 6]
0.25 µg/mL: Tobramycin MIC + Peptide (bacterial isolates; S. haemolyticus SHA005)
0.5 µg/mL: Tobramycin MIC + Peptide (bacterial isolates; A. baumannii ABI001) | Peptide MIC + Piperacillin (bacterial isolates; P. aeruginosa 23) | Tobramycin MIC + Peptide ([2]; A. baumannii ABI001) | Peptide MIC + Piperacillin ([2]; P. aeruginosa 23)
0.38: FIC (bacterial isolates; peptide + Piperacillin, S. aureus 19 MRSA)
